The text below walks through data of patent publication US9422267B2, “Fused pyrimidine compounds and use thereof” (Medivation Technologies, Inc., priority 2012, dated 2016).

The test system of data set [1] is human colon cancer COLO-205 cells. Nature of the data set: Efficacy in xenograft model of human colon cancer. It is filed as in vivo, mice. On the procedure:
To evaluate the efficacy of tumor growth inhibition, the compound 8b was studied using human cancer mouse models. The models are prepared by subcutaneously or orthotopically implanting mice with human cancer cells. When the tumor size of the mice develops (e.g., reaches 100 mm^3), the mice are divided into groups for treatment with compound 8b (where different groups receiving the compound 8b may be administered different amounts of the compound 8b) or are provided no compound as a control. The mice are treated (e.g., orally administered a compound of the invention) for a period of time. During the course of the study, the tumor is measured and the weight of the mice is determined. After the treatment period, the mice are sacrificed shortly (e.g. 1 or 2 hours) after the final dose. Blood and tissue are collected for biochemical analysis.
To evaluate the efficacy of tumor growth inhibition, compound 8b was studied using a human colon cancer mouse model. […] Tumor volume and mouse body weight were monitored over the 20 day experiment. […]
The appropriate amount of compound 8b was sonicated in a PEG-400 solution (80% w/v in case of Example B6B; and 50% w/v in case of Example B6C) to completely dissolve the compound, followed by dropwise addition of the required amount of H2O. […] During the course of the study, the tumor was measured and the weight of the mice was determined. […]

For data set [2], the system named is ASPC-1. The experiment in a line: Cell viability: pancreatic cancer cell line ASPC-1. It is filed as cell-based. As to conditions: Homo sapiens, ASPC1; ASPC-1 pancreatic cancer cell line. On the procedure: (§1) This assay quantitates the ATP present in order to determine the number of viable cells in culture. Briefly, the compounds were incubated with the cells for 72 h, followed by cell lysis. The resulting luminescent signal is proportional to the amount of ATP present and, therefore, directly proportional to the number of cells present in culture.
(§2) Analogous studies utilizing pancreatic cancer cell lines such as ASPC-1 and PANC-1 can be performed with compounds of the invention.

The test system of data set [3] is PANC-1. Nature of the data set: Cell viability: pancreatic cancer cell line PANC-1. It is filed as cell-based. As to conditions: Homo sapiens; PANC-1 pancreatic cancer cell line. On the procedure:
as §1, §2

Data set [4] has as its system panel of 72 non-kinase targets (Table B14), incl. CYP450. Nature of the data set: Extended panel screen against non-kinase targets (LeadProfilingScreen and CYP450 assays). As to conditions: 72 non-kinase targets, read-out: percent inhibition of all non-kinase targets. It is filed as binding. How it is done:
(§3) Compound no. The experiments were performed by Ricerca Biosciences (Painesville, Ohio) using the LeadProfilingScreen and CYP450 assays. Compound no. 8b was screened at a concentration of 1 μM. No significant hits were identified.

The subject of data set [5] is over 50 of the panel of 72 non-kinase targets (Table B14). Described as above. As to conditions: read-out: percent inhibition for over 50 of the non-kinase targets tested. It is filed as binding. How it is done:
as §3

The target in data set [6] is MET(M1250T) (Homo sapiens, UniProt P08581, M1250T). The experiment in a line: Caliper kinase profiling: MET(M1250T). In kind it is biochemical.
Data set [7] deals with T1, ABL1(G250E) (Homo sapiens, UniProt P00519, G250E).
T1 construct: purchased Caliper LifeSciences (ProfilerPro Kinase Selectivity Assay Kits)
Nature of the data set: Caliper kinase profiling: ABL1(G250E). In kind it is biochemical. As to conditions: read-out: Average % Inh @ 1 μM.

Data set [8] deals with DCAMKL1 (Homo sapiens, UniProt O15075). The experiment in a line: Caliper kinase profiling: DCAMKL1. In kind it is biochemical. As to conditions: DCAMKL1, 1 μM; read-out: Average % Inh @ 1 μM.
Data set [9] has as its target T2, AMPK-α2/β1/γ1 (Homo sapiens, UniProt P54646).
T2 construct: purchased Caliper LifeSciences (ProfilerPro Kinase Selectivity Assay Kits)
Nature of the data set: Caliper kinase profiling: AMPK-α2/β1/γ1. In kind it is biochemical.

The target of data set [10] is RET (Homo sapiens, UniProt P07949). The experiment in a line: Caliper kinase profiling: RET. It is filed as biochemical.
In data set [11] the target is EPHB4 (Homo sapiens, UniProt P54760). The experiment in a line: Caliper kinase profiling: EPHB4. As to conditions: EPHB4, 1 μM; read-out: Average % Inh @ 1 μM. In kind it is biochemical.
The target of data set [12] is EPHA4 (Homo sapiens, UniProt P54764). Nature of the data set: Caliper kinase profiling: EPHA4. In kind it is biochemical. As to conditions: EPHA4, 1 μM; read-out: Average % Inh @ 1 μM.
Data set [13] has as its target MST1R (Homo sapiens, UniProt Q04912). Nature of the data set: Caliper kinase profiling: MST1R. It is filed as biochemical. As to conditions: read-out: Average % Inh @ 1 μM.
For data set [14], the target named is PhKg2 (Homo sapiens, UniProt P15735). Nature of the data set: Caliper kinase profiling: PhKg2. It is filed as biochemical. As to conditions: PhKg2, 1 μM; read-out: Average % Inh @ 1 μM.
The target of data set [15] is T3, ABL1(Y253F) (Homo sapiens, UniProt P00519, Y253F).
T3 construct: purchased Caliper LifeSciences (ProfilerPro Kinase Selectivity Assay Kits)
The experiment in a line: Caliper kinase profiling: ABL1(Y253F). In kind it is biochemical. As to conditions: read-out: Average % Inh @ 1 μM.

Data set [16] addresses FYN (Homo sapiens, UniProt P06241). The experiment in a line: Caliper kinase profiling: FYN. In kind it is biochemical.
Data set [17] has as its target RET(Y791F) (Homo sapiens, UniProt P07949, Y791F). Nature of the data set: Caliper kinase profiling: RET(Y791F). It is filed as biochemical.
[18] abbreviates: 10 nM, read-out: Average % Inh @ 10 nM.
Where [19] appears, read: 100 nM, read-out: Average % Inh @ 100 nM.
Setting [20] is: 1 μM, read-out: Average % Inh @ 1 μM.

Sequence of FYN (P06241 whole entry): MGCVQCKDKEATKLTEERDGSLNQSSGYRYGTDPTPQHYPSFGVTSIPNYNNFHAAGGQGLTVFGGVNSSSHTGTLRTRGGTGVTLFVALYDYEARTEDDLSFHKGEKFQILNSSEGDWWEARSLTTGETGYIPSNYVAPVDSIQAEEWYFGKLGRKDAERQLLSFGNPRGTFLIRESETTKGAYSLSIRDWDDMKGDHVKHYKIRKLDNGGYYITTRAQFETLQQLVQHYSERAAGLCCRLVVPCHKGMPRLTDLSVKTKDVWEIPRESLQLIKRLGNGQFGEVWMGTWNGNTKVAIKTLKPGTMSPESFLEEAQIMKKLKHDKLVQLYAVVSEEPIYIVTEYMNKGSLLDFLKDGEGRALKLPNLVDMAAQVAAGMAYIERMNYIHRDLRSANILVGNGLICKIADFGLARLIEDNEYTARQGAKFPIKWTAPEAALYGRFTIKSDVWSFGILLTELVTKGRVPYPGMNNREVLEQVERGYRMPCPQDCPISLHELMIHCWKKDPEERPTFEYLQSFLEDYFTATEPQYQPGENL
Sequence of RET (P07949 29-1114): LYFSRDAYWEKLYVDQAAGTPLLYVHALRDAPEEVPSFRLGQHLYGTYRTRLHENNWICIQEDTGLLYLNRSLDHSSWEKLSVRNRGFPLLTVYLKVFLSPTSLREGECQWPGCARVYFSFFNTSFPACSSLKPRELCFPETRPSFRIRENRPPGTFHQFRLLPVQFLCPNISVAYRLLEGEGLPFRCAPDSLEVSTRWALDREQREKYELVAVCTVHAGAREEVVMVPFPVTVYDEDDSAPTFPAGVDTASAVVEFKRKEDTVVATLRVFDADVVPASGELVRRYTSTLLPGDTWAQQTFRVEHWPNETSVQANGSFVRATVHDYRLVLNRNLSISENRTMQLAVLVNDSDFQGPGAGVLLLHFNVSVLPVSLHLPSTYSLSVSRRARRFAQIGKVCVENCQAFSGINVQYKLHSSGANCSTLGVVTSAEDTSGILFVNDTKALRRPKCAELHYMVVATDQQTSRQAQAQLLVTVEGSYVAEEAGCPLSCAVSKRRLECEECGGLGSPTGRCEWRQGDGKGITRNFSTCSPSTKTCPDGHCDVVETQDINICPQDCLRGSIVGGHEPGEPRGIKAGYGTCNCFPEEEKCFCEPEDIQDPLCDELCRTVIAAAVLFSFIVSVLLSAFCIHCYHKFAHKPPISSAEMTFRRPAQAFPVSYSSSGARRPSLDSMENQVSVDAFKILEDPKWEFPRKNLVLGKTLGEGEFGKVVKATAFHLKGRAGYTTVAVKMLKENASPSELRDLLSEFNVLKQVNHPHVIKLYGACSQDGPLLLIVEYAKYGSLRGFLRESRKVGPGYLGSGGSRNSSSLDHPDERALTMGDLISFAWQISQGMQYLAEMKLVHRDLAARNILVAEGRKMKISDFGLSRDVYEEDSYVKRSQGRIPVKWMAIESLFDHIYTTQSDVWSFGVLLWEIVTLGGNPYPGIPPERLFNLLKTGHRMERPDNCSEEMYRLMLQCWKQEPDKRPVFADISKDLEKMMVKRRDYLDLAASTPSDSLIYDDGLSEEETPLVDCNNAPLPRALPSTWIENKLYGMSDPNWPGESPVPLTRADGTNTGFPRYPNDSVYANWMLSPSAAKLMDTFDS
T2 sequence (P54646 whole entry): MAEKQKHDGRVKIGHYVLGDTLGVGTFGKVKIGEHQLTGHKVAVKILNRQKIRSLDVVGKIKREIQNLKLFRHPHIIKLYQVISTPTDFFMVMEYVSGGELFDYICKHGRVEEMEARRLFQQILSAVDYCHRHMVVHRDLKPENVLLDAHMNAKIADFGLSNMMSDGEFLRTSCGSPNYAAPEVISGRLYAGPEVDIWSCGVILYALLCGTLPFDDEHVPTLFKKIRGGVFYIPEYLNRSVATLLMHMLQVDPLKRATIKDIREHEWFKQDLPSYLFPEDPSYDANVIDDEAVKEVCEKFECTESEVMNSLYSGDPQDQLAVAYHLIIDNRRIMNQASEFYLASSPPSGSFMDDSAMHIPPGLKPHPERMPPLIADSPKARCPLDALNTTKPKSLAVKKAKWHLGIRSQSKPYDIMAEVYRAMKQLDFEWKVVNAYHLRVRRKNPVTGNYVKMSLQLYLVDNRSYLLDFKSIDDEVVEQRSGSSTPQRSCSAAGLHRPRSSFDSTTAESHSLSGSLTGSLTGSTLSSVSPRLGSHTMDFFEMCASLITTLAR
T2 sequence (Q9Y478 whole entry partner): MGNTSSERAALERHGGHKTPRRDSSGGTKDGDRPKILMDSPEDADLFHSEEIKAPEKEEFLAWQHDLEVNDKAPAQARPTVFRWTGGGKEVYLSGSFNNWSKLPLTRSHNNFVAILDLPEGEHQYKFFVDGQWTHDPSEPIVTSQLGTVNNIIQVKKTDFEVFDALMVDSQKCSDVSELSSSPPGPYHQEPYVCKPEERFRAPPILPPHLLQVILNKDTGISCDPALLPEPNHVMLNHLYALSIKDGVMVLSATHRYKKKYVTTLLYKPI
T2 sequence (P54619 whole entry partner): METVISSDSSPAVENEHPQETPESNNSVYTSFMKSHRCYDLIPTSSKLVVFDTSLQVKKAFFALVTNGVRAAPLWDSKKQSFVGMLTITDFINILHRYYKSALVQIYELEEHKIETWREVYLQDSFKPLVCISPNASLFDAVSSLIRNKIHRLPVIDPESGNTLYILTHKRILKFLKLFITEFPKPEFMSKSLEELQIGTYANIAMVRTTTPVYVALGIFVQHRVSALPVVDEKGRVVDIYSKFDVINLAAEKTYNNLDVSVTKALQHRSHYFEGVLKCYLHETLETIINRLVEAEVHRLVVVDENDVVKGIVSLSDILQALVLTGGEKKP
Sequence of MET(M1250T) (P08581 25-1390 M1250T): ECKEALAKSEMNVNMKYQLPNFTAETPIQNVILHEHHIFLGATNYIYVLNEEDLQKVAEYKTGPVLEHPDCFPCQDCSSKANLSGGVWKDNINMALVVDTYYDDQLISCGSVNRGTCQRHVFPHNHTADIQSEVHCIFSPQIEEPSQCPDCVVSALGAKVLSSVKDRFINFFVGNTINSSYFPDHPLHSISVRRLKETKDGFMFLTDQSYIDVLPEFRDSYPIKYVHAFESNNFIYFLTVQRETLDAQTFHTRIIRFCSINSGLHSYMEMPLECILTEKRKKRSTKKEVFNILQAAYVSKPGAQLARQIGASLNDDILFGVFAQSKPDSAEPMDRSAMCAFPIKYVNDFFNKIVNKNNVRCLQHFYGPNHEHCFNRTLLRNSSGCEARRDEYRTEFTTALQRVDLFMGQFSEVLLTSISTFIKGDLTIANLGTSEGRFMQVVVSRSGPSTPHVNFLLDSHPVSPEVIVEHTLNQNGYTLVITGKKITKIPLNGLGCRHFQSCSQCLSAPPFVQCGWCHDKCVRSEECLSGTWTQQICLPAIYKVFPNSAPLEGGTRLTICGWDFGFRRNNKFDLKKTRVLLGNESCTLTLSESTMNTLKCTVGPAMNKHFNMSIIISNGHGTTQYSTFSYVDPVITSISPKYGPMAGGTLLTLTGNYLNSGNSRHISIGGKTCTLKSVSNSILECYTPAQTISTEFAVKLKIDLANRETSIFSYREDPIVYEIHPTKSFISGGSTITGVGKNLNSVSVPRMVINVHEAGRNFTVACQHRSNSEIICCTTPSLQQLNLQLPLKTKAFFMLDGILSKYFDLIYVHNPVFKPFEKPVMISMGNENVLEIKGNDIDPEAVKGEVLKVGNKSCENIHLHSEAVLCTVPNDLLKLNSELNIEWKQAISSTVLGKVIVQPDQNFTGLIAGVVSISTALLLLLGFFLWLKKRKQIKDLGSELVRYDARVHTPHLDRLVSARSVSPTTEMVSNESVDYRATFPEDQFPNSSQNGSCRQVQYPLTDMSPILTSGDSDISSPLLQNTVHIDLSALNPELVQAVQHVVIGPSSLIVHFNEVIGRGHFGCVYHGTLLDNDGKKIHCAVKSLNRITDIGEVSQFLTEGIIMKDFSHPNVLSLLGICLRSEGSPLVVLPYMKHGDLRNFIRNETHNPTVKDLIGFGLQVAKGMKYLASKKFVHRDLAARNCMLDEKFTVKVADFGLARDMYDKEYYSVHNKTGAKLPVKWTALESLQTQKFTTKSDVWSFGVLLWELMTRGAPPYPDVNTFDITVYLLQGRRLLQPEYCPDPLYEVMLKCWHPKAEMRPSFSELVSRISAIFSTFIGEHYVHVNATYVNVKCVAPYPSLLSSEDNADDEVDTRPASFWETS
Sequence of RET(Y791F) (P07949 29-1114 Y791F): as the sequence (P07949 29-1114) above, with Y763F counted along it
Sequence of DCAMKL1 (O15075 whole entry): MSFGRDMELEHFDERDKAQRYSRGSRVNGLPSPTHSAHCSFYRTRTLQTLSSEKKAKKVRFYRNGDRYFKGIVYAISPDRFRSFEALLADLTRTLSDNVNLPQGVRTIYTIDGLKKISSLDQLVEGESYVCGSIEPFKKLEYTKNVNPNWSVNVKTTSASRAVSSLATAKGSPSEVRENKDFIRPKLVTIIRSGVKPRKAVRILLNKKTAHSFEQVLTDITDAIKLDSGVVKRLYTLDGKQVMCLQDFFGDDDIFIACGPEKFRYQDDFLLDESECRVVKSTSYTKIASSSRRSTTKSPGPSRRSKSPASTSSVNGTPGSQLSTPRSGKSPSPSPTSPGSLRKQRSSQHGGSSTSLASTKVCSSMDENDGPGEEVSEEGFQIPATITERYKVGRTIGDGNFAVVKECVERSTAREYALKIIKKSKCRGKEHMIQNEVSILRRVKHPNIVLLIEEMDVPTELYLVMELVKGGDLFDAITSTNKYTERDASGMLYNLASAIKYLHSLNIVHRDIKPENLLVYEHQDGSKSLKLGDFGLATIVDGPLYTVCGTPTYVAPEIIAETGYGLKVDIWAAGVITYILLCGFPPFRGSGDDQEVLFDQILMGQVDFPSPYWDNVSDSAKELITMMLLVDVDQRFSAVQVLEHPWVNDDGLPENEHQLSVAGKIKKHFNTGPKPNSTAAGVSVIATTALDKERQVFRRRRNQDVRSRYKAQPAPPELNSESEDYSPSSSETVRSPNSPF

Consider `CC(C)c1cc(Nc2nc(N3CCCC3C(=O)Nc3ccc(F)nc3)nc3c2CCC3)n[nH]1` (single isomer, unassigned) [Compound 8b], for which, in data set [1] (COLO205 colon cancer model, nude mice, 1, 3, 10, 15 mg/kg oral, 20 day experiment (FIG. 1)), the tumor burden entry was “dose-dependently and significantly reduced tumor burden”. For the same compound, the “body weights of the mice” value in data set [1] (COLO205 xenograft model (FIG. 3)) was “dose-dependently reduced body weights”. Also, the IC50 in data set [2] was determined as 195 nM; in [3], 3660 nM. For the same compound, the values for the inhibition at 1 µM in [4] and in [5] were < 30% and < 10%, respectively.
`O=C(Nc1ccc(F)nc1)C1CCCN1c1nc2c(c(Nc3cc(C4CC4)[nH]n3)n1)CCC2` (single isomer, unassigned) [Compound 2b, 1-(4-(5-cyclopropyl-1H-pyrazol-3-ylamino)-6,7-dihydro-5H-cyclopenta[d]pyrimidin-2-yl)-N-(6-fluoropyridin-3-yl)pyrrolidine-2-carboxamide]: the inhibition at 0.01 µM was < 39% in [6] (MET M1250T, 10 nM, read-out: Average % Inh @ 10 nM); < 39% in data set [9] (AMPK-α2/β1/γ1, 10 nM, read-out: Average % Inh @ 10 nM); < 39% in data set [10] (setting [18]); < 39% in data set [16] (setting [18]); < 39% in data set [17] (setting [18]). Besides, the inhibition at 0.1 µM in data set [6] (MET M1250T, 100 nM, read-out: Average % Inh @ 100 nM) was < 39%; in data set [9] (AMPK-α2/β1/γ1, 100 nM, read-out: Average % Inh @ 100 nM), 40 to 59%; in data set [10] (setting [19]) it was 40 to 59%; in data set [16] (setting [19]), > 60%; in [17] (setting [19]) it was 40 to 59%. Also, the inhibition at 1 µM in data set [6] (MET(M1250T), 1 μM, read-out: Average % Inh @ 1 μM) was > 60%; in data set [7] it was > 60%; in data set [8] it was 40 to 59%; in [9] (AMPK-α2/β1/γ1, 1 μM, read-out: Average % Inh @ 1 μM), > 60%; in data set [10] (setting [20]), > 60%; in data set [11] it was 40 to 59%. Moreover, the inhibition at 1 µM in data set [12] was 40 to 59%; in data set [13], > 60%; in data set [14], 40 to 59%; in data set [15] it was 40 to 59%; in data set [16] (setting [20]) it was > 60%; in data set [17] (setting [20]) it was > 60%.

What is called IC50 is the point on the concentration scale where inhibition reaches its midpoint. A low value points to greater potency in that assay.
